How the values were obtained:
[1] = test system: everted intestine; assay: Distribution of acetaminophen in tissue compartments after incubation of everted intestine in vitro; format: in vitro ADME, rat
Method: An in vitro assay for quantifying bioadhesion of microspheres to intestinal tissue was used to test the hot melt microspheres made as described in Example 2 (Jacob et al., Proceed,. Intern. Symp. Control. Rel. Bioact. Mater. 22:312-313 (1995). Everted sac experiments were performed using the microsphere formulations listed above. 6 cm segments of rat jejunum flushed with phosphate buffered saline (PBS), everted and fashioned into sacs filled with PBS. Sacs were incubated with 60 mg of microspheres in 5 ml of PBS at 37° C. with end-over-end agitation. After 30 min, the sacs were removed and the unbound microspheres were collected, washed with distilled water, frozen and lyophilized for 24 hrs. The weight of unbound beads was used to determine the amount of beads bound to the intestine:
The FAPP:SAPP 92:8 18% acetaminophen microspheres were made using the hot melt method described in Example 2, and were used in everted sac experiments and the release of drug was determined to yield information on bioavailability. The release was determined by homogenizing intestinal tissue and mucosal and serosal fluids. The homogenates were centrifuged and the supernatant fluids were assayed for acetaminophen.

[2] = test system: rats; assay: Oral (stomach tube) insulin delivery in rat model, glucose tolerance after subcutaneous glucose load; format: in vivo; conditions: fed by stomach tube, by 3 hours
Method: The delivery of insulin after adminstration of the nanoparticles, loaded with 10% (w/w) micronized FeO, was studied in a rat model. Five 300 g fasted rats were anaesthetized with Metofane and fed the following formulations by stomach tube: Rats 1 and 2: 0.5 mL saline Rat 3: 24 I.U. insulin/0.5 mL saline (amorphous suspension) Rats 4 and 5: 50 mg FAPP/PLGA nanospheres containing 20 I.U. insulin and 10% (w/w)FeO Blood samples from the tail vein were taken as an initial baseline and rats were subsequently tested for glucose tolerance following injection of a subcutaneous glucose load, consisting of 5 mL of 5% sterile glucose solution. Tutwiler et al., Diabetes, 27:856-867 (1978). At 1, 3, 4 and 5 hours postfeeding, blood samples were again taken and plasma glucose levels were measured spectrophotometrically at 505 nm using the Trinder glucose assay.

Molecule | acetaminophen in gut wall ([1]; everted intestine in vitro) [mg/dL] | acetaminophen in mucosal fluid ([1]; everted intestine in vitro) [mg/dL] | acetaminophen in serosal fluid ([1]; everted intestine in vitro) [mg/dL] | mucosal/serosal ratio ([1]; everted intestine in vitro) | acetaminophen distribution, gut wall ([1]; everted sac) | acetaminophen distribution, mucosal fluid ([1]; everted sac) | acetaminophen distribution, serosal fluid ([1]; everted sac) | increase in blood glucose level over fasting baseline [2] [%]
CC(=O)Nc1ccc(O)cc1 [control, acetaminophen] | 19 ± 7 | 39 ± 1 | 13 ± 1 | 3.0 | 7.9 ± 0.9 % of total dose | 86.5 ± 1.5 % of total dose | 5.7 ± 0.9 % of total dose | –
insulin [oral insulin solution] | – | – | – | – | – | – | – | 62

Source: patent US20030077317A1, “Methods and compositions for enhancing the bioadhesive properties of polymers using organic excipients” (Brown University Research Foundation, priority 1996, published 2003)
